# In patent US20110098288A1, “SULFONAMIDES AS ZAP-70 INHIBITORS” (priority 2008, published 2011):
# pIC50: −log10 of the molar value. Structures can show the parent of a compound that is named as a salt.
# Experiments:
# ZAP-70 = target: T1, ZAP-70 (Homo sapiens, UniProt P43403); experiment: ZAP-70 kinobeads assay; type: binding; settings: competition with immobilized aminopyrido-pyrimidine ligand 24 in cell lysate; ZAP-70 detected by dot blot
# T1 construct: endogenous in cells; host or cells: cell lysate
# T1 sequence (P43403 1-619): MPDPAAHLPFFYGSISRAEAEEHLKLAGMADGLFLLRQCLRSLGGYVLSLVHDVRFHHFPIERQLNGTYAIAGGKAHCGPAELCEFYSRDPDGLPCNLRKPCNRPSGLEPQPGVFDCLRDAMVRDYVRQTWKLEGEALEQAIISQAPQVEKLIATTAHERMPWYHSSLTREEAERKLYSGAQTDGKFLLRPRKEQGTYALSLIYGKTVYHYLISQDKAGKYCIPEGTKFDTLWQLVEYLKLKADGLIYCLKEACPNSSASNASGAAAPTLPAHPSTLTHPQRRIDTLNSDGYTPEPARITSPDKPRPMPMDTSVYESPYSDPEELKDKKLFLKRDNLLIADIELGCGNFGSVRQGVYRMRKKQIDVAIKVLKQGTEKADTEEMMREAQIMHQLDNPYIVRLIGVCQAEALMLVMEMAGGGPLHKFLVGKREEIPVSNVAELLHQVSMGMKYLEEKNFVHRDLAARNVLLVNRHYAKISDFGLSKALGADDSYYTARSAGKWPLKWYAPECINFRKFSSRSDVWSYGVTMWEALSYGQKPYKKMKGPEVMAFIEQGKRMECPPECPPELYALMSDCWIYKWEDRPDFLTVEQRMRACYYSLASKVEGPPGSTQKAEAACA
# Summary of the method: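 Competition binding format: compounds compete with a bead-immobilized aminopyrido-pyrimidine ligand for ZAP-70 in cell lysate. After bead separation and elution, bound ZAP-70 measured by antibody dot blot with infrared read-out.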
# Jurkat cells = experiment: Calcium release assay (Fluo-4 flow cytometry after anti-CD3 stimulation); type: cell-based; settings: Homo sapiens, Jurkat cell line J77, anti-CD3 activation, read-out: IC50 (Calcium ion release in cells)
# Summary of the method: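 Jurkat J77 cells loaded with Fluo-4/Pluronic F-127 for 30 min at 37 °C, then incubated with compound at room temperature in the dark in PBS–CaCl2 with 10% FCS. Stimulation with anti-CD3 (0.2 μg/ml final) plus GAM (0.75 μg/ml final) at 37 °C, then flow-cytometric Ca2+ fluorescence acquired for 200 s.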
SMILES,pIC50 (ZAP-70),pIC50 (Jurkat cells)
"COc1cc(Nc2ncc(F)c(Nc3cccc(C)c3NS(C)(=O)=O)n2)cc(OCCN2CCCCC2)c1OC [Example 114, N-(2-(2-(3,4-dimethoxy-5-(2-(piperidin-1-yl)ethoxy)phenylamino)-5-fluoropyrimidin-4-ylamino)-6-methylphenyl)methanesulfonamide]",> 7.00,6.00 to 7.00
"COc1cc(Nc2ncc(F)c(Nc3cccc(C)c3NS(C)(=O)=O)n2)cc(OC)c1OC [Example 116, N-(2-(5-fluoro-2-(3,4,5-trimethoxyphenylamino)pyrimidin-4-ylamino)-6-methylphenyl)methanesulfonamide]",6.00 to 7.00,6.00 to 7.00
"CCOc1cc(Nc2ncc(F)c(Nc3cccc(C)c3NS(C)(=O)=O)n2)cc(OC)c1OC [Example 117, N-(2-(2-(3-ethoxy-4,5-dimethoxyphenylamino)-5-fluoropyrimidin-4-ylamino)-6-methylphenyl)methanesulfonamide]",> 7.00,6.00 to 7.00
"COc1cc(Nc2ncc(F)c(Nc3cccc(C)c3NS(C)(=O)=O)n2)cc(OC(C)C)c1OC [Example 118, N-(2-(5-fluoro-2-(3-isopropoxy-4,5-dimethoxyphenylamino)pyrimidin-4-ylamino)-6-methylphenyl)methanesulfonamide]",> 7.00,6.00 to 7.00
"CS(=O)(=O)Nc1ccccc1Nc1nc(Nc2cccc(OCCO)c2)ncc1Cl [Example 123, N-(2-(5-chloro-2-(3-(2-hydroxyethoxy)phenylamino)pyrimidin-4-ylamino)phenyl)methanesulfonamide]",> 7.00,> 7.00
"CS(=O)(=O)Nc1ccccc1Nc1nc(Nc2cccc(OCCN3CCCCC3)c2)ncc1Cl [Example 124, N-(2-(5-chloro-2-(3-(2-(piperidin-1-yl)ethoxy)phenylamino)pyrimidin-4-ylamino)phenyl)methanesulfonamide]",> 7.00,> 7.00
"COc1ccc(Nc2ncc(Cl)c(Nc3ccccc3NS(C)(=O)=O)n2)cc1OCCN1CCCCC1 [Example 125, N-(2-(5-chloro-2-(4-methoxy-3-(2-(piperidin-1-yl)ethoxy)phenylamino)pyrimidin-4-ylamino)phenyl)methanesulfonamide]",> 7.00,6.00 to 7.00
"CCN(CC)CCOc1cccc(Nc2ncc(Cl)c(Nc3ccccc3NS(C)(=O)=O)n2)c1 [Example 126, N-(2-(5-chloro-2-(3-(2-(diethylamino)ethoxy)phenylamino)pyrimidin-4-ylamino)phenyl)methanesulfonamide]",> 7.00,> 7.00
"CCN(CC)CCOc1ccc(Nc2ncc(Cl)c(Nc3ccccc3NS(C)(=O)=O)n2)cc1 [Example 127, N-(2-(5-chloro-2-(4-(2-(diethylamino)ethoxy)phenylamino)pyrimidin-4-ylamino)phenyl)methanesulfonamide]",> 7.00,> 7.00
"Cc1cccc(Nc2nc(Nc3cccc(OCCN4CCCCC4)c3)ncc2Cl)c1NS(C)(=O)=O [Example 128, N-(2-(5-chloro-2-(3-(2-(piperidin-1-yl)ethoxy)phenylamino)pyrimidin-4-ylamino)-6-methylphenyl)methanesulfonamide]",> 7.00,> 7.00
"CS(=O)(=O)Nc1ccccc1Nc1nc(Nc2cccc(OCC3CCNCC3)c2)ncc1Cl [Example 129, N-(2-(5-chloro-2-(3-(piperidin-4-ylmethoxy)phenylamino)pyrimidin-4-ylamino)phenyl)methanesulfonamide]",> 7.00,6.00 to 7.00
"CS(=O)(=O)Nc1ccccc1Nc1nc(Nc2cccc(OCCN3CCCC3=O)c2)ncc1Cl [Example 130, N-(2-(5-chloro-2-(3-(2-(2-oxopyrrolidin-1-yl)ethoxy)phenylamino)pyrimidin-4-ylamino)phenyl)methanesulfonamide]",6.00 to 7.00,> 7.00
"CS(=O)(=O)Nc1ccccc1Nc1nc(Nc2ccc(NC(=O)CN3CCCC3)cc2)ncc1Cl [Example 132, N-(4-(5-chloro-4-(2-(methylsulfonamido)phenylamino)pyrimidin-2-ylamino)phenyl)-2-(pyrrolidin-1-yl)acetamide]",6.00 to 7.00,> 7.00
CS(=O)(=O)Nc1ccccc1Nc1nc(Nc2cccc(OCCCN3CCCCC3)c2)ncc1Cl [Example 134],> 7.00,6.00 to 7.00
CN1CCN(CCCOc2cccc(Nc3ncc(Cl)c(Nc4ccccc4NS(C)(=O)=O)n3)c2)CC1 [Example 135],> 7.00,> 7.00
"CN1CCN(CCCOc2ccc(Nc3ncc(Cl)c(Nc4ccccc4NS(C)(=O)=O)n3)cc2)CC1 [Example 136, N-(2-(5-chloro-2-(4-(3-(4-methylpiperazin-1-yl)propoxy)phenylamino)pyrimidin-4-ylamino)phenyl)methanesulfonamide]",> 7.00,> 7.00
"COc1cc(Nc2ncc(Cl)c(Nc3ccccc3NS(C)(=O)=O)n2)cc(OCC(C)C)c1OC [Example 137, N-(2-(5-chloro-2-(3-isobutoxy-4,5-dimethoxyphenylamino)pyrimidin-4-ylamino)phenyl)methanesulfonamide]",> 7.00,6.00 to 7.00

# More lines, now with the values ahead:
pIC50 (ZAP-70),pIC50 (Jurkat cells),SMILES
> 7.00,> 7.00,"COc1cc(Nc2ncc(Cl)c(Nc3ccccc3NS(C)(=O)=O)n2)cc(OC)c1OC [Example 138, N-(2-(5-chloro-2-(3,4,5-trimethoxyphenylamino)pyrimidin-4-ylamino)phenyl)methanesulfonamide hydrochloride]"
6.00 to 7.00,> 7.00,"COc1ccc(Nc2ncc(Cl)c(Nc3ccccc3NS(C)(=O)=O)n2)cc1 [Example 139, N-(2-(5-chloro-2-(4-methoxyphenylamino)pyrimidin-4-ylamino)phenyl)methanesulfonamide hydrochloride]"
> 7.00,> 7.00,"CS(=O)(=O)Nc1ccccc1Nc1nc(Nc2cccc(OCCN3CCCC3)c2)ncc1Cl [Example 140, N-(2-(5-chloro-2-(3-(2-(pyrrolidin-1-yl)ethoxy)phenylamino)pyrimidin-4-ylamino)phenyl)methanesulfonamide]"
> 7.00,> 7.00,"COc1cc(Nc2ncc(Cl)c(Nc3ccccc3NS(C)(=O)=O)n2)ccc1OCCN1CCCC1 [Example 141, N-(2-(5-chloro-2-(3-methoxy-4-(2-(pyrrolidin-1-yl)ethoxy)phenylamino)pyrimidin-4-ylamino)phenyl)methanesulfonamide]"
> 7.00,6.00 to 7.00,"COc1cc(Nc2ncc(Cl)c(Nc3ccccc3NS(C)(=O)=O)n2)ccc1OCCN1CCCCC1 [Example 142, N-(2-(5-chloro-2-(3-methoxy-4-(2-(piperidin-1-yl)ethoxy)phenylamino)pyrimidin-4-ylamino)phenyl)methanesulfonamide hydrochloride]"
> 7.00,6.00 to 7.00,"CN1CCCCC1COc1cccc(Nc2ncc(Cl)c(Nc3ccccc3NS(C)(=O)=O)n2)c1 (centres unmarked) [Example 145, N-(2-(5-chloro-2-(3-((1-methylpiperidin-2-yl)methoxy)phenylamino)pyrimidin-4-ylamino)phenyl)methanesulfonamide]"
> 7.00,> 7.00,"CN1CCCC(COc2cccc(Nc3ncc(Cl)c(Nc4ccccc4NS(C)(=O)=O)n3)c2)C1 (centres unmarked) [Example 146, N-(2-(5-chloro-2-(3-((1-methylpiperidin-3-yl)methoxy)phenylamino)pyrimidin-4-ylamino)phenyl)methanesulfonamide]"
> 7.00,> 7.00,"CN1CCN(C)C(COc2cccc(Nc3ncc(Cl)c(Nc4ccccc4NS(C)(=O)=O)n3)c2)C1 (centres unmarked) [Example 147, N-(2-(5-chloro-2-(3-((1,4-dimethylpiperazin-2-yl)methoxy)phenylamino)pyrimidin-4-ylamino)phenyl)methanesulfonamide]"
6.00 to 7.00,> 7.00,"CCN(CC)C(=O)COc1cccc(Nc2ncc(Cl)c(Nc3ccccc3NS(C)(=O)=O)n2)c1 [Example 150, 2-(3-(5-chloro-4-(2-(methylsulfonamido)phenylamino)pyrimidin-2-ylamino)phenoxy)-N,N-diethylacetamide]"
> 7.00,> 7.00,"CCNC(=O)COc1cccc(Nc2ncc(Cl)c(Nc3ccccc3NS(C)(=O)=O)n2)c1 [Example 151, 2-(3-(5-chloro-4-(2-(methylsulfonamido)phenylamino)pyrimidin-2-ylamino)phenoxy)-N-ethylacetamide 2,2,2-trifluoroacetate]"
> 7.00,> 7.00,"COc1ccc(Nc2nc(Nc3cc(OC)c(OC)c(OC)c3)ncc2Cl)c(NS(C)(=O)=O)c1 [Example 152, N-(2-(5-chloro-2-(3,4,5-trimethoxyphenylamino)pyrimidin-4-ylamino)-5-methoxyphenyl)methanesulfonamide]"
